Drawing on US20060264460A1 (Wyeth, priority 2005, published 2006), this text covers IC50 for 38 compounds.

SMILES strings stand for the structures. Bounds are passed on as bounds.

The target of the first experiment is T1, human Cot/Tpl2 kinase (Homo sapiens, UniProt P41279).
T1 construct: human Cot/Tpl2 kinase construct encoding residues 30-398; 6His (N); made in house; host or cells: Sf9 insect cells, baculovirus system (BD Biosciences)
T1 sequence (P41279 30-398): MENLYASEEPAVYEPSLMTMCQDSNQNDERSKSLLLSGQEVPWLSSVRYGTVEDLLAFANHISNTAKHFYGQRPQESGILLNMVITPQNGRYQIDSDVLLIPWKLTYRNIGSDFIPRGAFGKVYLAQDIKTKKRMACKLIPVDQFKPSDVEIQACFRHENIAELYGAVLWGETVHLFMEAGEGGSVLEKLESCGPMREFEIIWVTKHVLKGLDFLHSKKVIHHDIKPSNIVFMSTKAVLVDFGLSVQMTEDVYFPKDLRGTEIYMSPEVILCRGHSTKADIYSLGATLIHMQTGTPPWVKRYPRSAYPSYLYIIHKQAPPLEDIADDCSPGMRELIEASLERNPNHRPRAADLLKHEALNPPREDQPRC
The experiment in a line: Tpl2/Cot kinase assay: GST-MEK1 phosphorylation detected by ELISA (DELFIA Eu). The format is biochemical. The following applies: 0.4 nM Tpl2, 35 nM GST-MEK1, 50 uM ATP, 1 h at 30° C. The procedure, abridged: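 Substrate phosphorylation (GST-MEK1 Ser217/221) quantified by DELFIA europium ELISA, yielding IC50 values. Reaction: 1 h at 30° C, pH 7.2 MOPS buffer, 50 uM ATP, 35 nM GST-MEK1, 0.4 nM monomeric His-Tpl2 purified from Sf9 cells, compounds at 1% final DMSO; stopped with EDTA.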
For orientation: ELISA stands for enzyme-linked immunosorbent assay.
In general, IC50 refers to the concentration needed to halve the response being measured. Low values mean inhibition by little substance, high ones a need for much substance. Take `N#Cc1cnc2c(C(F)(F)F)cc(NCc3ccccn3)cc2c1Nc1ccc(F)c(Cl)c1` [Example 231, 4-[(3-chloro-4-fluorophenyl)amino]-6-[(pyridin-2-ylmethyl)amino]-8-(trifluoromethyl)quinoline-3-carbonitrile]: it took 19700 nM to reach half-maximal inhibition (IC50). Compound `N#Cc1cnc2ccc(NCc3cccnc3)cc2c1NC1CCCCCC1` [Example 246, 4-(cycloheptylamino)-6-[(pyridin-3-ylmethyl)amino]quinoline-3-carbonitrile] showed an IC50 of 2400 nM. Compared with the last compound, the IC50 is about 8.2-fold lower. The same measure, in the same setting: to `N#Cc1cnc2c(Cl)cc(NCCc3cnc[nH]3)cc2c1Nc1ccc(F)c(Cl)c1` [Example 283, 8-chloro-4-[(3-chloro-4-fluorophenyl)amino]-6-{[2-(1H-imidazol-5-yl)ethyl]amino}quinoline-3-carbonitrile] belongs 130 nM. The same measure, in the same setting: the figure for `N#Cc1cnc2ccc(NCc3cccc(Br)c3)cc2c1Nc1ccc(F)c(Cl)c1` [Example 147, 6-(3-bromobenzylamino)-4-(3-chloro-4-fluorophenylamino)quinoline-3-carbonitrile] is 1600 nM; for `CCc1nc(CNc2cc(Cl)c3ncc(C#N)c(Nc4ccc(F)c(Cl)c4)c3c2)c(C)n1C(=O)OC(C)(C)C` [Example 194, tert-butyl 4-((8-chloro-4-(3-chloro-4-fluorophenylamino)-3-cyanoquinolin-6-ylamino)methyl)-2-ethyl-5-methyl-1H-imidazole-1-carboxylate] it is 9700 nM. Regarding `CC(C)(C)S(=O)(=O)Nc1c(C#N)cnc2ccc(NCc3cnc[nH]3)cc12` [Example 180, N-(6-((1H-imidazol-5-yl)methylamino)-3-cyanoquinolin-4-yl)-2-methylpropane-2-sulfonamide], the IC50 is over 40000 nM. The same measure, in the same setting: to `CSc1ncc(CNc2cc(Cl)c3ncc(C#N)c(Nc4ccc(F)c(Cl)c4)c3c2)cn1` [Example 281, 8-Chloro-4-[(3-chloro-4-fluorophenyl)amino]-6-({[2-(methylthio)pyrimidin-5-yl]methyl]amino)quinoline-3-carbonitrile] belongs 42 nM; to `N#Cc1cnc2c(Br)cc(NCc3cn(CCN4CCCCC4)nn3)cc2c1Nc1ccc(F)c(Cl)c1` [Example 296, 8-Bromo-4-(3-chloro-4-fluoro-phenylamino)-6-{[1-(2-piperidin-1-yl-ethyl)-1H-[1,2,3]triazol-4-ylmethyl]-amino}-quinoline-3-carbonitrile], 15 nM. The compound `CC(C)(C)OC(=O)N1CCC(CNc2ccc3ncc(C#N)c(Nc4ccc(F)c(Cl)c4)c3c2)C1` (centres unmarked) [Example 52, 3-{[4-(3-Chloro-4-fluoro-phenylamino)-3-cyano-quinolin-6-ylamino]-methyl}-pyrrolidine-1-carboxylic acid tert-butyl ester] gave an IC50 of 1500 nM. Same read-out and setting: to `N#Cc1cnc2c(Br)cc(NCc3nc(-c4ccccc4)n[nH]3)cc2c1Nc1ccc(F)c(Cl)c1` [Example 290, 8-Bromo-4-(3-chloro-4-fluoro-phenylamino)-6-[(5-phenyl-2H-[1,2,4]triazol-3-ylmethyl)-amino]-quinoline-3-carbonitrile] belongs over 40000 nM; to `N#Cc1ccc(OCC(=O)O)c(CNc2ccc3ncc(C#N)c(Nc4ccc(F)c(Cl)c4)c3c2)c1` [Example 44, (2-{[4-(3-Chloro-4-fluoro-phenylamino)-3-cyano-quinolin-6-ylamino]-methyl}-4-cyano-phenoxy)-acetic acid], 3300 nM.

Still in this experiment, the particulars now being: Table 2; Tpl2/Cot kinase, GST-MEK1 substrate, 50 uM ATP.
Compound `CS(=O)(=O)CCn1cnc(CNc2cc(Br)c3ncc(C#N)c(Nc4ccc(F)c(Cl)c4)c3c2)c1` [Example 529] yielded an IC50 of 43 nM. This counts as double-digit nanomolar. `N#Cc1cnc2c(Cl)cc(NCc3cccc(O)c3O)cc2c1Nc1ccc(F)c(Cl)c1` [Example 458] came in with an IC50 of 1300 nM. Against the preceding compound, the IC50 is about 30-fold higher.

The compound `N#Cc1cnc2c(Br)cc(NCc3cn(CCCN4CCNCC4)nn3)cc2c1Nc1ccc(F)c(Cl)c1` [Example 596] had an IC50 of 110 nM. On the same count and under the same terms, the figure for `CSCn1cc(CNc2cc(Br)c3ncc(C#N)c(Nc4ccc(F)c(Cl)c4)c3c2)nn1` [Example 530] is 12 nM; for `N#Cc1cnc2c(Br)cc(NCc3cccnc3)cc2c1Nc1cccc(Cl)c1` [Example 374] it is 36 nM. `C=Cc1cc(NCc2cnc[nH]2)cc2c(Nc3ccc(F)c(Cl)c3)c(C#N)cnc12` [Example 457] yielded an IC50 of 170 nM. Against the preceding compound, the IC50 is about 4.7-fold higher. In turn, `CC(O)Cn1cc(CNc2cc(Br)c3ncc(C#N)c(Nc4ccc(F)c(Cl)c4)c3c2)nn1` (centres unmarked) [Example 487] showed an IC50 of 11 nM. Against the preceding compound, the IC50 is about 15-fold lower. Same read-out and setting: the figure for `N#Cc1cnc2c(Cl)cc(NCc3cncn3CCN3CCOCC3)cc2c1Nc1ccc(F)c(Cl)c1` [Example 489] is 62 nM.

`CC(C)(C)OC(=O)N1CCCC(Cn2cc(CNc3cc(Cl)c4ncc(C#N)c(Nc5ccc(F)c(Cl)c5)c4c3)nn2)C1` (centres unmarked) [Example 541] returned an IC50 of 250 nM. The same measure, in the same setting: to `N#Cc1cnc2ccc(NCCN3CCOCC3)cc2c1Nc1ccc2[nH]ccc2c1` [Example 356] belongs over 10000 nM. On the same count and under the same terms, the figure for `Cn1cnc(CNc2cc(Cl)c3ncc(C#N)c(Nc4ccc(F)c(Cl)c4)c3c2)n1` [Example 478] is 530 nM; for `N#Cc1cnc2c(Br)cc(NCc3cn(CC(F)(F)F)nn3)cc2c1Nc1ccc(F)c(Cl)c1` [Example 498] it is 100 nM.

The same experiment, now with this note: Tpl2/Cot kinase, GST-MEK1 substrate, 50 uM ATP.
For `N#Cc1cnc2c(Cl)cc(NCc3cn(CCCN4CCCNCC4)nn3)cc2c1Nc1ccc(F)c(Cl)c1` [Example 767], the IC50 was 74 nM. In other words, the double-digit nanomolar range. In the case of `CN(C)CC(c1ccccc1)n1cc(CNc2cc(Cl)c3ncc(C#N)c(Nc4ccc(F)c(Cl)c4)c3c2)nn1` (centres unmarked) [Example 740], it took 70 nM to reach half-maximal inhibition (IC50). This IC50 and that of the compound before are within 1.5-fold of each other. On the same count and under the same terms, the figure for `COCCn1cc(CNc2cc(Cl)c3ncc(C#N)c(Nc4ccc(F)c(Cl)c4)c3c2)nn1` [Example 733] is 20 nM. Still for that read-out and setting: to `N#Cc1cnc2c(Br)cc(NCc3cn(CCCO)nn3)cc2c1Nc1ccc(F)c(Cl)c1` [Example 697] belongs 18 nM; to `N#Cc1cnc2c(Cl)cc(NCC3CCNCC3)cc2c1Nc1ccc(F)c(Cl)c1` [Example 824], 1240 nM. The compound `N#Cc1cnc2c(Cl)cc(N(C=O)Cc3cn(CCCNC=O)nn3)cc2c1Nc1ccc(F)c(Cl)c1` [Example 915] showed an IC50 of 170 nM. Compared with the last compound, the IC50 is about 7.3-fold lower. On to `CN(C)C(=O)N1CCC(Cn2cc(CNc3cc(Cl)c4ncc(C#N)c(Nc5ccc(F)c(Cl)c5)c4c3)nn2)CC1` [Example 828], for which the IC50 is 2.6 nM. On the same count and under the same terms, the figure for `N#Cc1cnc2c(Cl)cc(NCc3cn(CCOC(N)=O)nn3)cc2c1Nc1ccc(F)c(Cl)c1` [Example 784] is 5.9 nM.

The same experiment, now with this note: Tpl2/Cot kinase, GST-MEK1 substrate, 50 uM ATP, 1 h at 30° C.; Table 2.
In the case of `CC(=O)N1C2CCC1CC(n1cc(CNc3cc(Cl)c4ncc(C#N)c(Nc5ccc(F)c(Cl)c5)c4c3)nn1)C2` (centres unmarked) [Example 1053], the midpoint of inhibition, the IC50, lay at 24 nM. Still for that read-out and setting: to `N#Cc1cnc2c(Cl)cc(NCC3CCCN(C(=O)CNc4cccnc4)C3)cc2c1Nc1ccc(F)c(Cl)c1` (centres unmarked) [Example 923] belongs 560 nM; to `N#Cc1cnc2c(Cl)cc(NCc3cn(CCN4CCNCC4)nn3)cc2c1Nc1ccc(F)c(Cl)c1` [Example 958], 310 nM.

For `CN1CCCC1CCn1cc(CNc2cc(Cl)c3ncc(C#N)c(Nc4ccc(Oc5ccccc5)cc4)c3c2)nn1` (centres unmarked) [Example 990], inhibition was half-maximal at 830 nM (IC50). For the compound `CC(C)(C)OC(=O)N1CCC(n2cc(CNc3cc(Cl)c4ncc(C#N)c(NC5CCC5)c4c3)nn2)CC1` [Example 953], the IC50 came out at 810 nM. Still for that read-out and setting: to `CC(=O)N1CCC(n2cc(CNc3cc(Cl)c4ncc(C#N)c(Nc5ccc(F)c(Cl)c5)c4c3)nn2)CC1` [Example 930] belongs 3.3 nM. `N#Cc1cnc2c(Cl)cc(NCc3cn(CC(O)c4ccccn4)nn3)cc2c1Nc1ccc(F)c(Cl)c1` (centres unmarked) [Example 993] registered an IC50 of 48 nM.
